Assay [1] deals with K-ras NRK cells. Nature of the assay: Propagation inhibitory effect on K-ras NRK cells. The assay is classed as cell-based. Conditions: Rattus norvegicus, 72 h, 3 days, read-out: IC50, cell propagation. As to the method:
(§1) Next, cells of different types were inoculated in wells of 12 wells plastic plate (Costar 3521, manufactured by Costar) at 2.0×10^4 /DMEM 1 ml/well, and the plate was incubated in an incubator of 5% CO2 for one day. III-121C was added to the thus incubated cells to different concentrations and incubation was continued for another 3 days. The number of cells was measured by repeating the above-described procedure to determine the concentration (IC50) of the III-121C required to inhibit the cell propagation to 50%.

Assay [2] concerns K-ras-NIH 3T3 cells. Nature of the assay: Propagation inhibitory effect on K-ras-NIH 3T3 cells. In kind it is cell-based. Conditions: Mus musculus, NIH3T3, 72 h; K-ras-NIH 3T3, 3 days; read-out: IC50, cell propagation. As to the method: (§2) Normal rat kidney cell, NRK-49 (Dainihon Pharmaceutical K.K.) and normal mouse cell, NIH 3T3 (JCRB Cell Bank); and K-ras NIH 3T3, H-ras NIH 3T3, and N-ras NIH 3T3 (Tokyo University, Medical Science Institute, Japan) which are cell lines that have been transformed with Kirsten sarcoma virus, Harvey sarcoma virus, and neuroblastoma virus, respectively, were incubated at 37° C. in the similar manner.
as §1

For assay [3], the system named is K-ras^ts-NRK cells. Nature of the assay: Action mechanism: morphology / M phase observation in K-ras^ts-NRK cells. In kind it is cell-based, rat. As to the method: Before the addition of the III-121C, the cells grew atop the other and had projections or processes on their surface (FIG. 9(a)).
The procedure as described above was repeated by replacing the III-121C with 0.1 μg/ml of vinblastine, 0.1 μg/ml of vincristine and 0.1 μg/ml of colchicine, which are known as microtubule formation inhibitors.

The test system of assay [4] is H-ras-NIH 3T3 cells. Nature of the assay: Propagation inhibitory effect on H-ras-NIH 3T3 cells. The assay is classed as cell-based. As to conditions: Mus musculus, NIH3T3, 72 h; H-ras-NIH 3T3, 3 days; read-out: IC50, cell propagation. As to the method:
as §2, §1

The subject of assay [5] is RSV^ts-NRK cells. Nature of the assay: Activity to induce changes in cell morphology, RSV^ts-NRK cells. In kind it is cell-based, rat. Conditions: 0.3 μg/ml, 2 days. As to the method: as §2
(§3) The effect of the III-121C on various types of cultured cells was evaluated by inoculating each type of cells in wells of 24 wells plastic plate (Costar 3524, manufactured by Costar) at 3×10^4 cells/1 ml medium/well; incubating the plate in an incubator of 5% CO2 for one day; and adding the III-121C sample to the cell cultures to observe the cell morphology for another two days.
RSV^ts -NRK is a cell line that had been transformed with an src oncogene, and is temperature sensitive as in the case of K-ras^ts -NRK.

In assay [6] the test system is NRK cells. The experiment in a line: Propagation inhibitory effect on NRK cells. In kind it is cell-based. Conditions: Rattus norvegicus, 72 h, 3 days, read-out: IC50, cell propagation. As to the method:
as §2, §1

Assay [7] concerns N-ras-NIH 3T3 cells. The experiment in a line: Activity to induce changes in cell morphology, N-ras-NIH 3T3 cells. In kind it is cell-based, mouse. As to conditions: 0.3 μg/ml, 2 days. As to the method: as §2, §3
(§4) K-ras-NIH 3T3 and H-ras-NIH 3T3 are transformed cell lines, and the cells are elongated with projections or processes on their surface, and grow atop the other. N-ras-NIH 3T3 cells are also elongated and their projections or processes are even longer.

The subject of assay [8] is NIH 3T3 cells. The experiment in a line: Propagation inhibitory effect on NIH 3T3 cells. The assay is classed as cell-based. As to conditions: Mus musculus, NIH3T3, 72 h; NIH 3T3, 3 days; read-out: IC50, cell propagation. As to the method:
as §2, §1

For assay [9], the system named is H-ras-NIH 3T3 cells. The experiment in a line: Activity to induce changes in cell morphology, H-ras-NIH 3T3 cells. In kind it is cell-based, mouse. Conditions: 0.3 μg/ml, 2 days. As to the method: as §2, §3, §4
Assay [10] deals with H-ras-NIH 3T3 cells. Nature of the assay: Effect on production of actin filaments, H-ras-NIH 3T3 cells. In kind it is cell-based, mouse. As to conditions: 1 μg/ml, one day. As to the method:
A cover glass with a diameter of 18 mm (manufactured by Matsunami Glass Industry K.K.) that had been washed with 100% ethanol, dried, and sterilized was placed in wells of 12 wells plastic plate, and the cells were inoculated in the wells at 3.0×10^4 /DMEM 1 ml/well. The plate was incubated in an incubator of 5% CO2 for 1 day. To the thus incubated cell culture was added 1 μg/ml of III-121C, and the incubation was continued for another one day. The cell culture was then fixed with paraformaldehyde. The fixed cell culture was reacted with rhodamine pharoidine reagent (Molecular Probe Inc.) to examine the cell morphology by fluorescence microscope with G filter (excitation, 546 nm).

Assay [11] relates to K-ras-NRK tumor. Nature of the assay: Growth of K-ras-NRK tumor in nude mice. As to conditions: K-ras-NRK s.c., intraperitoneal, days 0, 2, 4 (FIG. 8). The assay is classed as in vivo. As to the method:
To 4 groups of nude mice (each group comprising 6 individuals) were subcutaneously inoculated 1×10^6 cells of K-ras-NRK on their back. Formation of a small tumor was recognized after 4 days from the inoculation, and intraperitoneal administration of III-121C at different doses was started on this day (day 0). III-121C was additionally administered after two days and four days from the start of the administration to measure the volume of the tumor. No III-121C was administered to the mice of the control group. The results are depicted in FIG. 8.

Values after ≈ are worked out from the molar mass of the structure shown. “Also recorded” adds a separate entry of the source.

One compound from patent US5559115A, “Oncogene function-inhibitory agent, method for inhibiting oncogene function, and treatment of cancer” (Terumo Kabushiki Kaisha, priority 1993, dated 1996) can be followed below.

By IC50 is commonly meant the concentration at which inhibition is half-maximal. With `CCC12CC(C(=O)OC)=C3Nc4cc5c(cc4C34CCN(CC3OC31)C42)C1C(O5)C(O)C2(CC)CC(C(=O)OC)=C3Nc4c(cc(O)c(OC)c4OC)C34CCN1C42` (stereo not drawn) [III-121C], the IC50 in assay [1] was 0.4 µg/mL (≈ 0.503 µM); in assay [2], 0.4 µg/mL (≈ 0.503 µM); in [4] it was 0.48 µg/mL (≈ 0.604 µM); in assay [6], 0.19 µg/mL (≈ 0.239 µM); in assay [8] it was 0.47 µg/mL (≈ 0.591 µM). Moreover, the anti-ras activity result in assay [3] (1 μg/ml, 33° C.) was “has an anti-ras activity”. For the same compound, the “change in cell morphology” value was “the cells no longer grew atop the other and became flat” in [3] (33° C., 1 μg/ml, after one day); “changed their cell morphology to have a rounded appearance similar to the morphology of the normal NRK-49 cells” in assay [5] (33° C.); “changed their cell morphology to have a rounded appearance similar to the morphology of the normal NRK-49 cells” in assay [5] (39° C.). Besides, the “change in cell morphology and growth habits” value in assay [3] (33° C., 1 μg/ml, after two days) was “such change in the cell morphology and growth habits were even more significant”; in assay [7], “the cells changed their morphology and growth habits to those of normal NIH 3T3 cells, and became flat with an increased area of contact”; in assay [9], “the cells changed their morphology and growth habits to those of normal NIH 3T3 cells, and became flat with an increased area of contact”. The “cell division inhibitory activity” value in assay [3] (compared with microtubule inhibitors) is given as “free from the cell division inhibitory activity; also recorded: not associated with the cell division inhibitory action”. In addition, the “actin filaments / cell morphology” value in [10] is “morphology of normal cells with longitudinally extending linear actin filaments”. In assay [11], the tumor growth inhibition result is on record as “the growth of the tumor was inhibited in a dose dependent manner; also recorded: growth suppression of tumors in living mammals”.
